From PMC6297231 (Nature Communications, 2018)
Where two headings read alike, the source gives them in different places.

Columns and labels:
SKLU1 = assay: Cell viability assay; assay type: cell-based; conditions: Homo sapiens, SK-LU-1, 24 h; SKLU1 (Lung); read-out: AZD5991 24h GI50
Protocol: (§1) Cells were plated at 3000 cells/well in 384-well white plates in corresponding cell growth media. […] Caspase-3/7 activation was subsequently determined using a Caspase-Glo 3/7 Reagent (Promega) and viability was assayed using the CellTiter-Glo Reagent (Promega) as described in manufacturer’s instructions. Dose–response curves for caspase-3/7 activation and viability were plotted and analyzed (including EC50 and GI50 determination) using GraphPad Prism.

T47D = assay: Cell viability assay; assay type: cell-based; conditions: Homo sapiens, 24 h; T47D (Breast); read-out: AZD5991 24h GI50
Protocol: as §1

ULA = assay: Cell viability assay; assay type: cell-based; conditions: 24 h; ULA (NHL); read-out: AZD5991 24h GI50
Protocol: as §1

SKMEL2 = assay: Cell viability assay; assay type: cell-based; conditions: Homo sapiens, SK-MEL-2, 24 h; SKMEL2 (Skin); read-out: AZD5991 24h GI50
Protocol: as §1

MINO = assay: Cell viability assay; assay type: cell-based; conditions: Homo sapiens, 24 h; MINO (NHL); read-out: AZD5991 24h GI50
Protocol: as §1

RCK8 = assay: Cell viability assay; assay type: cell-based; conditions: Homo sapiens, 24 h; RCK8 (NHL); read-out: AZD5991 24h GI50
Protocol: as §1

Calu1 = assay: Cell viability assay; assay type: cell-based; conditions: Homo sapiens, Calu-1, 24 h; Calu1 (Lung); read-out: AZD5991 24h GI50
Protocol: as §1

REC1 = assay: Cell viability assay; assay type: cell-based; conditions: Homo sapiens, 24 h; REC1 (NHL); read-out: AZD5991 24h GI50
Protocol: as §1

[1] = system: Eμ-Myc lymphoma cells stably expressing human Bcl-w; assay: Apoptosis induction in Eμ-Myc lymphoma cells; conditions: overexpression of Bcl-w, 24 h
Description: The retroviral plasmids to express human Bcl-2 family members in murine Eμ-Myc lymphoma cells are MSCV-hMCL-1-GFP, MSCV-hBCL-2-GFP, MSCV-hBCL-XL-GFP, MSCV-hBFL-1/A1-GFP, and MSCV-hBCL-w-GFP. To produce viruses, constructs of interest were co-transfected into HEK293T cells with the plasmid encoding the packaging viruses (p-CL-AMPHO provided by Phillip Darcy from Peter MacCallum Cancer Center, Melbourne, Australia) using standard calcium phosphate transient transfection technique. The retroviruses were harvested, filtered and used to infect target cells following standard procedures.
Samples were then centrifuged, washed twice with PBS and analyzed by flow cytometry in a BD LSRFortessa. FACSDiva software was used for data collection and FlowJo software for data analysis.

H1048 = assay: Cell viability assay; assay type: cell-based; conditions: Homo sapiens, NCI-H1048, 24 h; H1048 (Lung); read-out: AZD5991 24h GI50
Protocol: as §1

OCILY1 = assay: Cell viability assay; assay type: cell-based; conditions: Homo sapiens, OCI-Ly1, 24 h; OCILY1 (NHL); read-out: AZD5991 24h GI50
Protocol: as §1

NB4 = assay: Caspase-3/7 activation assay; assay type: cell-based; conditions: Homo sapiens, NB-4, 6 h
Protocol: as §1

MUTZ3 = assay: Cell viability assay; assay type: cell-based; conditions: 24 h; MUTZ3 (AML); read-out: AZD5991 24h GI50
Protocol: as §1

H647 = assay: Cell viability assay; assay type: cell-based; conditions: Homo sapiens, NCI-H647, 24 h; H647 (Lung); read-out: AZD5991 24h GI50
Protocol: as §1

MWCL1 = assay: Cell viability assay; assay type: cell-based; conditions: 24 h; MWCL1 (NHL); read-out: AZD5991 24h GI50
Protocol: as §1

Cc1c2c(nn1C)CSCc1cc(n(C)n1)CSc1cc(c3ccccc3c1)OCCCc1c(C(=O)O)n(C)c3c-2c(Cl)ccc13 (atropisomer, axis not shown; (Ra)) [(Ra)-7]
GI50 (SKLU1): 29900 nM
GI50 (T47D): > 30000 nM
GI50 (ULA): 91 nM
GI50 (SKMEL2): 9310 nM
GI50 (MINO): 149 nM
GI50 (RCK8): > 30000 nM
GI50 (Calu1): > 30000 nM
GI50 (REC1): 728 nM
apoptosis-inducing activity [1]: blocked
GI50 (H1048): 4250 nM
GI50 (OCILY1): 561 nM
EC50 (NB4; read-out: 6h caspase EC50, NB4, single agent): 201 nM
EC50 (NB4; read-out: AZD5991 6h EC50, NB4 (AML), caspase 3/7 activation): 347 nM
GI50 (MUTZ3): 4 nM
GI50 (H647): > 30000 nM
GI50 (MWCL1): 1650 nM
